Laboratory results published in US20140221390A1, “PROPHYLACTIC AND/OR THERAPEUTIC AGENT FOR NON-ALCOHOLIC STEATOHEPATITIS” (Kowa Company, Ltd., priority 2010, published 2014).
Counter-ions that a name gives are not always drawn.

What was measured:
Format in all cases: in vivo
KK-A^y mice = assay: Effect in KK-Ay mice fed with MCD diet (NASH model); conditions: 7 weeks
From the text: Rodent models fed with methionine-choline deficient diet (MCD diet) are widely used as NASH models (See Hebbard L, George J.: Animal models of nonalcoholic fatty liver disease Nat Rev Gastroenterol Hepatol. 2011 January; 8 (1):35-44. Epub 2010 Nov. 30.). Among them, models of KK-A^y mice are known to cause marked steatohepatitis and fibrosis (See Okumura K., Ikejima K., Kon K., Abe W., Yamashina S., Enomoto N., Takei Y. and Sato N. (2006) Exacerbation of dietary steatohepatitis and fibrosis in obese, diabetic KK-A^y mice Hepatology Research 2006 36:3 (217-228)). It is considered that the mice are excellent models to examine the drug effect on NASH.
Male KK-A^y mice (KK-A^y/TaJcl mice, 12 weeks old, were purchased from CLEA Japan, Inc.) were used for the experiment. The mice were fed with the MCD diet for 7 weeks to cause NASH.
The mice were separated into a control group, a compound A (30 mg/kg) administered group, and a compound A (200 mg/kg) administered group. The drug and feeds were mixed to feed the mice. The dosing period was 7 weeks.
The compound A and feeds were mixed to feed the mice. The mice was fed with the MCD diet, and fed with the feed mixture at the same time.
The methods were performed, in the same manner as in the case of the murine NASH-hepatoma models described in Example 2. In addition to the HE-stained specimens for observing liver tissues, Azan-stained specimens were also prepared.

C57BL/6N-NASH mice = assay: Effect in murine NASH-hepatoma models (C57BL/6N-NASH mice); conditions: 100 mg/kg mixed in feed, 5 weeks
From the text: Murine NASH-hepatoma models (brand name: C57BL/6 N-NASH mice) developed in Stelic Institute & Co. (See Japanese Patent Application Laid-Open (JP-A) No. 2009-178143) are provided by Charles River Laboratories Japan, Inc. The murine models develop NASH by initiation of insulin resistance and feeding with a high fat diet. The murine models show changes which histologically reflect the conditions of human NASH. The fatty liver (before 6 weeks old) progresses to NASH (7 weeks old), liver cirrhosis (after 10 weeks old), and liver cancer (after 16 weeks old). Accordingly, it is said that the models are useful in research and development of therapeutic drugs for NASH (See Data of SIAM Mice C57BL/6N-NASH Model Mice (http://www.crj.co.jp/topics/pdf/69/6375030/B6N_NASH_leaflet—091019.pdf)).
Then, the effect of the compound A was examined using murine NASH-hepatoma models with a more serious condition than the knockout mice used in Example 1.
Male C57BL/6N-NASH mice (Charles River Laboratories Japan, Inc.) were used for the experiment. Streptozotocin was administered to the mice aged 1 to 2 days and they were fed with a high fat diet (D12492, Research Diet) from 4 weeks old. The mice were purchased at 6 weeks old and continuously fed with the same high fat diet (hereinafter, the mice are referred to as “C57BL/6N-NASH mice”). As a normal control group, normal mice (C57BL/6N, 6 weeks old, Charles River Laboratories Japan, Inc.) were purchased at the same time and they were fed with an ordinary diet (CE-2, CLEA Japan, Inc.) (hereinafter referred to as “normal mice”).
C57BL/6N-NASH mice were used for a control group and a compound A (100 mg/kg) administered group. The number of mice in each group was six. As normal mice (control group), 6 normal mice (C57BL/6N mice) were used.
The compound A and feeds were mixed to feed the mice. C57BL/6N-NASH mice with NASH aged 7 weeks were fed with the feed mixture. The dosing period was 5 weeks.
After the end of administration, the mice were fasted for 4 hours. The blood was collected from the abdominal portion of vena cava under anesthesia, and the plasma was fractionated. After collecting the blood, the liver was extracted. A part of the liver was frozen for preservation, and the other part was embedded in paraffin in a usual manner. Plasma lipid and plasma ALT levels were measured using an autoanalyzer (Labospect003, Hitachi, Ltd.). Measurement of liver lipid was performed in the following manner. That is, chloroform and methanol (at a ratio of 2:1) were added to a part of the frozen and preserved liver, which was homogenized, and the resultant mixture was allowed to stand at 4° C. overnight, followed by filtration. A part of the filtrate was fractionated, followed by evaporation and drying. The resultant product was dissolved in isopropanol. The concentrations of total cholesterol (TC) and triglyceride (TG) were measured using Cholesterol E-Test Wako and Triglyceride E-Test Wako, respectively. Further, paraffin sections and HE-stained specimens were produced to observe liver tissues.

[1] = system: LDL receptor-knockout mice; assay: Effect in LDL receptor-knockout mouse NASH model (Western diet); conditions: 12 weeks
From the text: An effect in LDL receptor-knockout mice fed with the Western diet which were known to develop fatty liver and hepatic inflammation, i.e., characteristic conditions of NASH (Yoshimatsu M. et al. Int J Exp Pathol., 85(6), 335-43 (2004)) was examined. In the present test, monohydrochloride of 2-[4-[2-(benzimidazol-2-ylthio)ethyl]piperazin-1-yl]-N-[2,4-bis(methylthio)-6-methyl-3-pyridyl]acetamide (hereinafter referred to as “compound A”) was used.
Male LDL receptor-knockout mice (B6.129S7-Ldlr<tm1Her>/J, Jackson Laboratories) were used for the experiment. The mice aged around 8 weeks were allowed to freely intake Teklad Custom Research Diet (TD.88137, manufactured by Harlan Teklad) as a Western diet for 12 weeks to cause them to develop NASH.
The mice were separated into a control group (hydrochloride added purified water) and a compound A (3 mg/kg, as free form) administered group so that there is no difference in the weights between the groups.
The dose was calculated by 10 mL/kg weight. Hydrochloride added purified water and each drug solution were orally administered to the control group and the compound A administered group, respectively, at an interval of at least 6 hours, once in the morning and once in the afternoon. The mice aged around 8 weeks were fed with the Western diet, and the drug solution was administered at the same time. The dosing period was 12 weeks.
After the end of administration, the mice were fasted overnight. The blood was collected from the abdominal portion of vena cava under anesthesia with pentobarbital sodium (50 mg/kg) and the plasma was fractionated. After collecting the blood, the liver was extracted and frozen for preservation. A part of the liver was frozen in ISOGEN (NIPPON GENE, CO., LTD.) and preserved to analyze the gene expression.
Total cholesterol (TC) and triglyceride (TG) in the plasma were measured using Cholesterol E Test Wako and Triglyceride E Test Wako (both manufactured by Wako Pure Chemical Industries, Ltd.), respectively. Measurement of liver lipid was performed in the following manner. Chloroform and methanol (at a ratio of 2:1) were added to the frozen and preserved liver, which was homogenized, and the resultant mixture was allowed to stand at 4° C. longer than overnight, followed by filtration. A part of the filtrate was fractionated, followed by evaporation and drying. The resultant product was dissolved in isopropanol. TC and TG concentrations were measured using Cholesterol E-Test Wako and Triglyceride E-Test Wako, respectively.
Liver gene expression analysis was performed by extracting RNA from the liver and measuring expression levels of TNF-α genes and CD11c genes in adhesion molecules belonging to an integrin family of macrophages by realtime RT-PCR. The liver was homogenized in ISOGEN to extract RNA according to the instruction manual. The concentration of RNA was measured using a spectrophotometer (ND-1000, NanoDrop Technologies, Inc.). Reverse transcription of mRNA from total RNA was performed using High Capacity cDNA Reverse Transcription Kit (Applied Biosystems) to synthesize cDNA. Gene expression analysis was performed by an intercalator method using SYBR green I or a method using Taqman Probe. Realtime RT-PCR was performed using 7900HT Fast Real-Time PCR System (Applied Biosystems). β-actin was used as an internal standard. After correction with β-actin, the expression levels of respective genes were compared with one another. The sequences of the used primers and probes are as follows: […]
The statistical work was performed using the Windows (registered trademark) version of the SAS Preclinical Package (SAS Institute Japan Inc.).

CSc1cc(C)nc(SC)c1NC(=O)CN1CCN(CCSc2nc3ccccc3[nH]2)CC1 [compound A, monohydrochloride of 2-[4-[2-(benzimidazol-2-ylthio)ethyl]piperazin-1-yl]-N-[2,4-bis(methylthio)-6-methyl-3-pyridyl]acetamide]
plasma ALT level (KK-A^y mice; 200 mg/kg mixed in feed, FIG. 8): significantly reduced
plasma lipid (KK-A^y mice; 30 or 200 mg/kg mixed in feed): no effect
hepatic TC level (KK-A^y mice; mixed in feed, FIG. 9): significantly reduced
hepatic TG level (KK-A^y mice; mixed in feed, FIG. 10): significantly reduced
development of lipid-droplet deposition in the liver (HE-stained) (KK-A^y mice; mixed in feed, FIG. 11): inhibited
development of fibrosis in the liver (Azan-stained) (KK-A^y mice; mixed in feed, FIG. 12): inhibited
plasma lipid (C57BL/6N-NASH mice; from 7 weeks old): no effect
plasma ALT level (C57BL/6N-NASH mice; vs NASH control group, FIG. 4): reduced
hepatic TC level (C57BL/6N-NASH mice; vs NASH control group, FIG. 5): reduced
hepatic TG level (C57BL/6N-NASH mice; vs NASH control group, FIG. 6): reduced
development of lipid-droplet deposition in liver (HE-stained) (C57BL/6N-NASH mice; FIG. 7): inhibited
total cholesterol (TC) in the plasma ([1]; 3 mg/kg as free form, oral, twice daily, Western diet, FIG. 1A): no significant effect
triglyceride (TG) in the plasma ([1]; 3 mg/kg as free form, oral, twice daily, Western diet, FIG. 1B): no significant effect
total cholesterol (TC) in the liver ([1]; 3 mg/kg as free form, oral, twice daily, Western diet, FIG. 2A): significant decrease
triglyceride (TG) in the liver ([1]; 3 mg/kg as free form, oral, twice daily, Western diet, FIG. 2B): significant decrease
macrophage CD11c gene expression in the liver ([1]; 3 mg/kg, realtime RT-PCR, corrected with β-actin, FIG. 3A): significant decreases
inflammatory cytokine TNF-α expression in the liver ([1]; 3 mg/kg, realtime RT-PCR, corrected with β-actin, FIG. 3B): significant decreases
